The values that follow come from patent publication US20070027079A1, “GHRP 2 strips” (priority 2005, published 2007).

Where a SMILES comes first, the peptide text is derived from it. [ ]: non-standard residue; d: D form. d2Nal = N[C@H](Cc1ccc2ccccc2c1)C(=O)O

This data set in a line: Certificate of analysis GHRP-2: solubility. The format is physicochemical. The following applies: specification: soluble in water and 1% acetic acid at a concentration of ≧1 mg/ml to give a clear, colorless solution; batch 6P-20030403.

For the compound `C[C@H](NC(=O)[C@@H](Cc1ccc2ccccc2c1)NC(=O)[C@@H](C)N)C(=O)N[C@@H](Cc1c[nH]c2ccccc12)C(=O)N[C@H](Cc1ccccc1)C(=O)N[C@@H](CCCCN)C(N)=O` [GHRP-2, D-Ala-D-Nal-Ala-Trp-D-Phe-Lys-NH2] (H-[dA][d2Nal]AW[dF]K-NH2), the Solubility result is “Complies”.
